# From patent US11247976B2, “Synthetic ligands that modulate the activity of the RhlR quorum sensing receptor” (Wisconsin Alumni Research Foundation, priority 2016, dated 2022)
# pEC50, pIC50: −log10 of the molar value. “Also recorded” adds a separate entry of the source. Marks after values point to notes of the source that are not given here.
# Tests used:
# RhlR [1] = target: T1, RhlR (Pseudomonas aeruginosa, UniProt P54292); test: E. coli RhlR reporter agonism assay (JLD271/pJN105R2/pSC11-rhlI*); format: cell-based, P. aeruginosa; settings: for activation at 10 µM: compound at 10 μM, RhlR activity relative to 1 mM BHL; for Emax: read-out: Maximum Activation (%); for RhlR agonist potency in words: dose-response; for RhlR agonist activity in words: single-concentration screen at 10 μM
# T1 construct: expressed in transfected cells; host or cells: E. coli JLD271 (ΔsdiA) with pJN105R2 (arabinose-induced) and pSC11-rhlI*
# T1 sequence (P54292 whole entry): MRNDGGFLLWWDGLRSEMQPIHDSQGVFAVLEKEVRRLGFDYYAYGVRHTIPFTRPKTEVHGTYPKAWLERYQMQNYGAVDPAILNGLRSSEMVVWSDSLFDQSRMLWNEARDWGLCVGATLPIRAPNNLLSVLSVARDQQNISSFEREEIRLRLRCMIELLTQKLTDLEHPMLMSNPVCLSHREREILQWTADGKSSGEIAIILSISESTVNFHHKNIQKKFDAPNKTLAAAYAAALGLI
# Experimental: (§1) All media and reagents for bacterial culture were purchased from commercial sources. Bacteria were cultured in Luria-Bertani broth (LB) at 37° C. with shaking at 200 rpm unless otherwise noted. The bacterial reporter strains used for this study were (i) the heterologous E. coli strain JLD271 (ΔsdiA) harboring the RhlR expression plasmid pJN105R2 and the rhlI-lacZ transcriptional fusion reporter pSC11-rhlI*, (ii) the heterologous E. coli strain JLD271 (ΔsdiA) harboring the LasR expression plasmid pJN105L and the […] transcriptional fusion reporter pSC11, and (iii) the P. aeruginosa strain PAO-JP2 (ΔlasrhlI) harboring the rhlI-gfp transcriptional fusion reporter prhlI-LVAgfp. Reporter strains JLD271/pJN105R2/pSC11-rhlI* and JLD271/pJN105L/pSC11 were grown in LB containing 100 μg/mL ampicillin and 10 μg/mL gentamicin. Freezer stocks of bacterial strains were maintained at −80° C. in 1:1 LB:50% glycerol.
# (§2) To evaluate the modulatory activities of library compounds on RhlR and LasR using E. coli reporters, the strains JLD271/pJN105R2/pSC11-rhlI* and JLD271/pJN105L/pSC11 were used, respectively, as previously described.^38, 51 The following modifications were used in the RhlR agonism reporter assay, non-native compounds (10 μM or 1 mM) were compared to 1 mM BHL as the positive control. Briefly, a subculture was prepared by diluting an overnight culture 1:10 with fresh media containing 100 μg/mL ampicillin and 10 μg/mL gentamicin, and was incubated until it had grown to OD600=0.45. In all assays, L-arabinose was added to a final concentration of 4 mg/mL to induce RhlR expression. For RhlR agonism assays, activities of test compounds were measured relative to 1 mM BHL (the concentration required to induce a maximal level of RhlR activity). For RhlR antagonism assays, test compounds were competed against a concentration of BHL approximately equal to its EC50 value (10 μM). Activity was measured relative to 10 μM BHL. Inhibition was calculated by subtracting 100% from the relative activity value. Thus, 0% inhibition mimics represents no competitive displacement of 10 μM BHL by a test compound. In all assays, modifications were made to the standard Miller assay protocol to accommodate the use of the chlorophenol red-β-D-galactopyranoside (CPRG) β-galactosidase substrate. After cell lysis, 150 μL of the aqueous layer was transferred from each well of a solvent-resistant 96-well microtiter plate to the wells of a new clear, flat-bottom 96-well microtiter plate. CPRG (4 mg/mL in phosphate-buffered saline) was added to each well in 25 μL volumes. Plates were incubated at 30° C. until the positive control wells developed a red color (approximately 30 min). The amount of processed CPRG substrate was assessed by measuring the absorbance of each well at 570 nm. Enzymatic activity was calculated using the following equation: adjusted Miller units=1000·Abs570/(OD600·t·V),
# (§3) where t is the incubation time of substrate with lysate and V is the volume of culture lysed.
# Because LuxR-type receptors are often unstable in solution, preventing the use of in vitro assays to directly assess small molecule agonism and antagonism, reporter gene assays represent a standard method for screening small-molecule libraries for LuxR-type receptor modulation. Previously reported strains for this purpose were used in the current study.^38 Synthetic N-butanoyl L-homoserine lactone (BHL), the native ligand of RhlR, was used as the positive control for receptor activation. Commonly, agonists are measured relative to maximum possible receptor activation within a particular assay medium;^40 because the dose-response curve of BHL is distinctly shallow in these RhlR reporters, a high concentration of BHL is required to maximally activate RhlR. In this study, activation of compounds was measured relative to that elicited by 1 mM BHL (the concentration of BHL used causes no aberrant growth effects in the reporter strain). […]
# RhlR [2] = target: T1, RhlR; test: E. coli RhlR reporter antagonism assay vs 10 μM BHL (JLD271/pJN105R2/pSC11-rhlI*); format: cell-based, P. aeruginosa; settings: for inhibition at 10 µM: read-out: % inhibition (10 μM), compound at 10 μM in the presence of 10 μM BHL; for inhibition at 10 µM / inhibition at 1000 µM: negative = agonism stronger than 10 μM BHL alone; for inhibition at 1000 µM: read-out: % inhibition (1 mM), compound at 1 mM in the presence of 10 μM BHL
# Experimental: as §1
# as §2, with “For RhlR antagonism assays, test compounds were competed against a concentration of BHL approximately equal to its EC50 value (10 μM).” left out
# as §3
# The RhlR-modulatory activity of the J library compounds was assessed in a heterologous reporter strain (E. coli JLD271 harboring plasmids pJN105R2 and pSC11-rhlI*) in order to isolate the RhlR receptor from upstream QS regulation (e.g. regulation by LasR). Thus, the extent to which compounds were directly modulating RhlR could be determined. These assays were performed by incubating compound-treated, mid-log phase E. coli reporter cells in 96-well microtiter plates, followed by Miller assay evaluation of ß-galactosidase activity.
# RhlR agonism and antagonism screens of each compound were performed initially at 10 μM.
# LasR = target: T2, LasR (Pseudomonas aeruginosa, UniProt P25084); test: Selectivity of RhlR agonism over LasR agonism (E. coli LasR reporter JLD271/pJN105L/pSC11); format: cell-based, P. aeruginosa; settings: RhlR % activity divided by LasR % activity, > = negligible activity in LasR reporter
# T2 construct: expressed in transfected cells; host or cells: E. coli JLD271 (ΔsdiA) with pJN105L and pSC11
# T2 sequence (P25084 whole entry): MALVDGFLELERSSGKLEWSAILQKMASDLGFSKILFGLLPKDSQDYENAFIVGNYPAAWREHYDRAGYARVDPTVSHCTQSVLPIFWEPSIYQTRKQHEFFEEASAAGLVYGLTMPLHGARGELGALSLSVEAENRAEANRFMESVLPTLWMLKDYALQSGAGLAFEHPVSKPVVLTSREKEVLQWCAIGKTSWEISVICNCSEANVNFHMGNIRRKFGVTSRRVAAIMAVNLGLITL
# Experimental: as §1, §2
# LasR assays were processed using the protocol for the substrate ortho-nitrophenyl-β-galactoside (ONPG) as previously described elsewhere.^53; and LasR antagonism assays were performed versus the EC50 for OdDHL (2 nM).
# The selectivity of certain compounds for RhlR over LasR was measured using a LasR reporter strain (details above). Table 6 provides a comparison of selectivity of RhlR agonism over LasR agonism for exemplary compounds. Table 7 provides a comparison of selectivity of RhlR antagonism over LasR antagonism for exemplary compounds.
# RhlR [3] = target: T1, RhlR; test: P. aeruginosa RhlR reporter agonism assay (PAO-JP2/prhlI-LVAgfp); format: cell-based; settings: for Emax: read-out: Maximum Activation (%)
Compound,pEC50 (RhlR [1]),activation at 10 µM (RhlR [1]; E. coli reporter),Emax (RhlR [1]),inhibition at 10 µM (RhlR [2]),inhibition at 1000 µM (RhlR [2]),Fold selectivity of RhlR agonists over LasR agonism (LasR; tested concentration 1 mM),Fold selectivity of RhlR agonists over LasR agonism (LasR; tested concentration 10 μm),pEC50 (RhlR [3]),Emax (RhlR [3]),RhlR agonist potency in words (RhlR [1]; E. coli reporter),RhlR agonist activity in words (RhlR [1]; E. coli reporter),Hill slope of agonism dose-response (RhlR [1]; E. coli reporter),"fold more potent than the native ligand (RhlR [1]; E. coli reporter, EC50 vs BHL)",pIC50 (RhlR [2]),RhlR antagonist activity in words (RhlR [2]; E. coli reporter vs 10 μM BHL),"Maximum Inhibition (%) (RhlR [2]; E. coli reporter, relative to activation of 10 μM BHL alone)"
CCCC(=O)N[C@H]1CCSC1=O [RN8],5.31,71%,102%,-8%,-75%,4.5 fold,17 fold,4.84,94%,–,–,–,–,–,–,–
"O=C(N[C@H]1CCOC1=O)C1CCC1 [Compound J24, cyclobutanoyl AHL]",5.75,79%,100%,-66%,-110%,48 fold,>79^b fold,5.85,95%,significantly more potent than BHL; also recorded: rivaled in potency that of S4,strong,–,–,–,–,–
"CCCC(=O)N[C@H]1CCOC1=O [BHL, N-butanoyl L-homoserine lactone, reference compound]",5.05,51%,100%,–,–,18 fold,56 fold,5.09,100%,–,–,0.7,–,–,–,–
"CC(C)CC(=O)N[C@H]1CCOC1=O [Compound J18, isovaleryl HL]",5.99,86%,105%,-62%,-123%,>99^b fold,255^ fold,5.85,94%,significantly more potent than BHL,comparable RhlR activation to that of BHL,–,~10 fold,–,–,–
O=C(N[C@H]1CCSC1=O)C1CCC1 [RN15],5.76,–,106%,-85%,-114%,11 fold,>88^b fold,5.78,90%,"equipotent to the cyclobutanoic tail group parent, compound J24",–,–,–,–,–,–
O=C(COc1ccc(I)cc1)NCC1CCCO1 (stereo not shown) [RN23],–,0%,–,6%,> 50%,–,–,–,–,–,–,–,–,< 4.00,potent antagonist activity; also recorded: negligible maximum potency difference from its head group parent compound RN10,56%
CCC(C)C(=O)N[C@H]1CCOC1=O (stereo partly shown) [Compound J19],5.11,55%,95%,-24%,-101%,–,–,–,–,–,comparable RhlR activation to that of BHL,–,–,–,–,–
